# Peptide text beside a SMILES is read from it.
# T1: B2 receptor (Homo sapiens, UniProt P30411)
# T1 construct: endogenous in cells; host or cells: HaCaT
# T1 sequence (P30411 1-391): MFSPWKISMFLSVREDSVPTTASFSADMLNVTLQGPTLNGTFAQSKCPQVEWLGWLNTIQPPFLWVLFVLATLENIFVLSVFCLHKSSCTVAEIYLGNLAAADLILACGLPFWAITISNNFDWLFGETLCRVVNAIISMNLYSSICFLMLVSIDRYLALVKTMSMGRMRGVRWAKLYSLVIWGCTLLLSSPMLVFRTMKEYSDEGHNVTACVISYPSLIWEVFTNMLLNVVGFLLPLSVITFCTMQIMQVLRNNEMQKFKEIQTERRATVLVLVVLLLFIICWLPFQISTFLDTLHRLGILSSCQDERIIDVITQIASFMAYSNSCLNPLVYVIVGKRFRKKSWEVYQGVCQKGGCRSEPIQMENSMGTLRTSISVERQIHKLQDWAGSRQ
# Tests used:
# B2 receptor = target: T1, B2 receptor; assay: Intracellular calcium flux in HaCaT cells; assay type: cell-based
# Method: HaCaT cells were seeded onto 96-well plates and, upon reaching full confluence, were starved for 3 h (medium without FBS). […] After 1.5 h in 37 °C, fluorescence intensity (485/525 nm) was recorded continuously for 5 min using FlexStation 3 (Molecular Devices). […] FBS (3%) served as positive control. Results were calculated as area under the curves of RFU fold change from the signal recorded at baseline and adjusted to % of maximum response (FBS) curve. Non-linear regression analyses were performed to generate dose–response curves and calculate EC50 values.
# pKLK = target: T2, pKLK (Homo sapiens, UniProt P03952); assay: BK release from HMWK by pKLK, HPLC; assay type: biochemical; settings: 5 µg HMWK, 500 nM pKLK, 24 h, 50 mM Tris-HCl pH 7.5, 37 °C
# T2 construct: purchased Merck
# Method: Ten µg of BK or cBK (ProImmune) were incubated with 15 ng of CPM (RnD; 1 h in 50 mM MES buffer pH 6.0 containing 5 mM CaCl2, 0.2% Triton-X100), 20 ng of NEP (RnD; 2 h in 50 mM HEPES buffer pH 7.4 containing 150 mM NaCl, 0,01% Triton-X100) or 40 ng of ACE1 (Merck; 4 h in 20 mM HEPES buffer containing 100 µM ZnCl2, 300 mM KCl) in final volume of 11 µl in 37 °C. Substrate controls were incubated in parallel without enzymes. Five µg of HMWK (Merck) were incubated with 500 nM of pKLK (Merck; 24 h in 50 mM Tris–HCl buffer pH 7.5 containing 100 mM NaCl, 0.01% Triton-X100) in final volume of 35 µl in 37 °C. Reactions were stopped with addition of TFA, TCA, EDTA and inhibitors for ACE1 (1 µM lisinopril), NEP (4 mM thiorphan), pKLK (1 mM AEBSF), and analysed via HPLC.
# Absorbance chromatograms (215 nm) were evaluated with the LabSolutions software.
# T2 sequence (P03952 20-638): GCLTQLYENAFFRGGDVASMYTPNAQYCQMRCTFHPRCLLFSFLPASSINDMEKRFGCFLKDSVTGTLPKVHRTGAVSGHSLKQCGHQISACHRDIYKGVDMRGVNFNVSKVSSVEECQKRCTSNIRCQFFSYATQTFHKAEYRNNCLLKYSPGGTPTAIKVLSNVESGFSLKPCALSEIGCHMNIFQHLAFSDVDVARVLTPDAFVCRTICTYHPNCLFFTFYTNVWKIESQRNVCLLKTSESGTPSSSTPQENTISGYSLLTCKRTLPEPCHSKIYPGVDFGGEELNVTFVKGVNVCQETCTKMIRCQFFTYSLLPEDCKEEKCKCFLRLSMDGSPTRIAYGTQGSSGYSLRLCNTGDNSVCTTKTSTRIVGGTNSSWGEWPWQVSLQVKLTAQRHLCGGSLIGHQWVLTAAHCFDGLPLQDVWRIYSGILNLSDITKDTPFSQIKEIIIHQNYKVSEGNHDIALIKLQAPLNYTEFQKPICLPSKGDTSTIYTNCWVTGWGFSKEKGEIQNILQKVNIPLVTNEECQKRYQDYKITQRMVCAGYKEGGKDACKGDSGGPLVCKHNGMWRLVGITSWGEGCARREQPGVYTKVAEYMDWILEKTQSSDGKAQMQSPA
pKLK-driven generation of BK (pKLK),Molecule,"B2-stimulatory potential lower than the response elicited by native BK (B2 receptor; 100 nM peptide, calcium sensitive dye)","EC50 (B2 receptor; Calcium Dye 5, AUC of RFU fold change as % of maximum response (FBS), n = 6, mean ± SEM)"
–,N=C(N)NCCC[C@H](NC(=O)[C@H](Cc1ccccc1)NC(=O)[C@@H]1CCCN1C(=O)[C@H](CO)NC(=O)[C@H](Cc1ccccc1)NC(=O)CNC(=O)[C@@H]1CCCN1C(=O)[C@@H]1CCCN1C(=O)[C@H](CCCNC(=N)N)NC(N)=O)C(=O)O [cBK] (HELM PEPTIDE1{[N=C(N)NCCC[C@H](NC(N)=O)C(=O)[*:2]].P.P.G.F.S.P.F.R}$$$$V2.0),over 25%,26.55 ± 0.0011 nM
abolishes,"carbamylated HMWK: carbamylated high molecular weight kininogen (protein, UniProt P01042 19-644, looked up, High molecular weight kininogen carbamylated) Kininogen-1: QESQSEEIDCNDKDLFKAVDAALKKYNSQNQSNNQFVLYRITEATKTVGSDTFYSFKYEIKEGDCPVQSGKTWQDCEYKDAAKAATGECTATVGKRSSTKFSVATQTCQITPAEGPVVTAQYDCLGCVHPISTQSPDLEPILRHGIQYFNNNTQHSSLFMLNEVKRAQRQVVAGLNFRITYSIVQTNCSKENFLFLTPDCKSLWNGDTGECTDNAYIDIQLRIASFSQNCDIYPGKDFVQPPTKICVGCPRDIPTNSPELEETLTHTITKLNAENNATFYFKIDNVKKARVQVVAGKKYFIDFVARETTCSKESNEELTESCETKKLGQSLDCNAEVYVVPWEKKIYPTVNCQPLGMISLMKRPPGFSPFRSSRIGEIKEETTVSPPHTSMAPAQDEERDSGKEQGHTRRHDWGHEKQRKHNLGHGHKHERDQGHGHQRGHGLGHGHEQQHGLGHGHKFKLDDDLEHQGGHVLDHGHKHKHGHGHGKHKNKGKKNGKHNGWKTEHLASSSEDSTTPSAQTQEKTEGPTPIPSLAKPGVTVTFSDFQDSDLIATMMPPISPAPIQSDDDWIPDIQIDPNGLSFNPISDFPDTTSPKCPGRPWKSVSEINPTTQMKESYYFDLTDGLS",–,–
